According to patent US8703698B2, “Compositions and methods for treating atherosclerosis” (The University of Chicago, priority 2003, dated 2014):

B1: KEANWKNSDKYFHARGNYDAAQRGPGGVWAAEKISDGREAFQEFFGRGHEDTIADQEAN RHGRSGKDPNYYRPPGLPDKY (protein)
chain: KEANWKNSDKYFHARGNYDAAQRGPGGVWAAEKISDGREAFQEFFGRGHEDTIADQEANRHGRSGKDPNYYRPPGLPDKY
notes: 80-mer cyanogen bromide fragment of murine SAA2.1, residues 24-103

Tests used:
THP-1 cells = experiment: Cholesterol efflux from cholesterol-laden human THP-1 cells; type: cell-based; conditions: for 3H-cholesterol exported into the media after 24 hours (FIG. 19): peptide/lipid mixture by microfluidizer, human THP-1 cells
NR8383 cells = experiment: Cholesterol export from rat NR8383 macrophages; type: cell-based; conditions: peptide/lipid mixture by microfluidizer
Method: In these experiments, mouse J774 cells, human THP-1 cells and rat NR8383 cells were loaded with red blood cell membranes containing ^3H-cholesterol in accordance with procedures outlined in Example 4. The peptides were prepared as lipid mixtures using a microfluidizer procedure. Briefly, 3 mg of the 20-mer synthetic peptide (SEQ ID NO:30) or the 19-mer synthetic peptide (SEQ ID NO:12) was mixed with 5 ml cyclohexane and sonicated (output power of 14 watts) for 20-seconds followed by a 10-second interval. Separately, 2-oleyl-1-palmitoyl-sn-glycero-3-phosphocholine (Sigma-Aldrich P3017; 67.8 mg) and cholesterol (9.66 mg) were dissolved in 2 ml of chloroform, vortexed and transferred to a 500 ml round bottom flask. The two mixtures (i.e. cyclohexane/peptide and phosphatidylcholine/cholesterol solutions) were then combined. The combined solution was dried using nitrogen gas while swirling the flask, resulting in a thin layer of lipid at the bottom half of the flask. In order to ensure that the thin layer of lipid residue was completely dry, nitrogen gas was streamed over the lipid layer for an additional 10 minutes. […] Efficacy of the peptides was determined as the amount ^3H-cholesterol exported into the media after 24 hours. […]

J774 macrophages = experiment: [3H]cholesterol efflux from cholesterol-loaded J774 macrophages in tissue culture; type: cell-based, mouse; conditions: for 3H-cholesterol exported into the media after 24 hours (FIG. 19): peptide/lipid mixture by microfluidizer
[1] = tested on: [3H]-cholesterol-loaded J774 macrophages; experiment: In vivo cholesterol efflux to plasma in mice injected with [3H]-cholesterol-loaded J774 macrophages; conditions: for 3H-cholesterol export into the plasma, dose response (FIGS. 17 and 18): liposome formulated, intravenous, 2, 4, 8, 16 or 32 μg/100 μl per mouse, 6 to 48 hours; for radiolabeled cholesterol exported in the plasma (FIG. 15): non-liposome formulated, in 100 μl PBS, intravenous, 15 μg/mouse peptide or 75 μg/mouse full length protein
Method: In these experiments, in vivo cholesterol export was determined in mice injected with J774 macrophages cholesterol-loaded with RBC membranes and [^3H]-cholesterol. Two hundred thousand macrophages in 100:1 PBS were injected into each mouse through the tail vein. At various time points thereafter, approximately 25:1 of blood were collected from the tail vein of each animal into heparinized capillary tubes. The tubes were then centrifuged for 5 minutes in an Adams Autocrit Centrifuge to separate red blood cells from plasma. Cholesterol efflux was determined by measuring the appearance of [^3H]-cholesterol in plasma by scintillation spectrometry. To study whether export of cholesterol from J774 cells to plasma was influenced by non-liposome formulated D-27mer peptide (SEQ ID NO:10), 24 hours after injection of cholesterol-loaded J774 macrophages into mice, the same animals received, by intravenous injection, 30 μg, 60 μg, 150 μg, 225 μg, 300 μg or 600 μg of D-27mer. All these amounts of D-peptides were dissolved in 100:l of phosphate buffered saline and injected through the tail vein of each animal.
Additional in vivo studies have also been conducted wherein mice were first injected intravenously with [^3H]cholesterol-laden macrophages and then injected 24 hours later with liposomes containing 0.5 μM of synthetic peptides corresponding to amino acid residues 1-20, 21-50, 51-80 or 74-103 of murine SAA2.1. Results from this study are depicted in FIG. 1. At time points indicated in the graph of FIG. 1, approximately 25 μl of blood were collected from the tail vein of each animal. The blood samples were centrifuged to separate the red blood cells from the plasma and the [^3H]-cholesterol in plasma was determined by scintillation counting. Results are mean±SEM of four determinations.
To determine cholesterol export in vivo, J774 macrophages were cholesterol-loaded with red blood cell membranes and [^3H]-cholesterol as described above. Cells were washed four times with PBS/BSA and then detached from the culture dishes. Five million cells in 200 μl DMEM were injected into control mice or inflamed mice through the tail vein. At various time points, approximately 25 μl of blood were collected from the tail vein of each animal into heparinized capillary tubes and then centrifuged for 5 minutes in an Adams Autocrit Centrifuge to separate red blood cells from plasma. Cholesterol efflux was determined by measuring the appearance of [^3H]-cholesterol in plasma by scintillation spectrometry.
J774 cells cultured in 6-well plates were enriched with cholesterol by incubating with red blood cell (RBC) membrane fragments (175:g as cholesterol) that had been previously labeled with 0.5:Ci/ml [^3H]-cholesterol at 37° C. for 24 hours in 0.2% bovine serum albumin (BSA). After loading with the labelled RBC membrane for 6 hours, cells were then washed with phosphate-buffered saline/BSA (PBS/BSA) three times followed by an 18 hour equilibration period during which monolayers were exposed to DMEM/BSA. To determine cholesterol export in vivo, J774 macrophages were cholesterol-loaded with RBC membranes and [^3H]-cholesterol as described previously above. Cells were washed four times with PBS/BSA and then detached from the culture dishes. Two hundred thousand cells in 100:l PBS were injected into mice through the tail vein. At various time points thereafter, approximately 25:l of blood were collected from the tail vein of each animal into heparinized capillary tubes. These tubes were then centrifuged for 5 minutes in an Adams Autocrit Centrifuge to separate red blood cells from plasma. Cholesterol efflux was determined by measuring the appearance of [^3H]-cholesterol in plasma by scintillation spectrometry. […]

[2] = molecular target: macrophage cholesterol ester hydrolase (murine)
[3] = molecular target: macrophage acyl CoA:cholesterol acyl transferase (murine)
[4] = tested on: hepatic, macrophage, and pancreatic cholesterol esterase; conditions: Lindhorst 1997; Ely 2001; Tam 2002; cited from earlier work
[5] = molecular target: T1, acyl CoA:cholesterol acyl transferase (Mus musculus, UniProt Q61263); conditions: intact murine macrophages and post-nuclear homogenates; Ely et al. 2001; cited from earlier work
T1 construct: The relative activity of acyl CoA:cholesterol acyl transferase was determined in cholesterol-laden cells; host or cells: J774 mouse macrophages, cholesterol-loaded
T1 sequence (Q61263 1-540): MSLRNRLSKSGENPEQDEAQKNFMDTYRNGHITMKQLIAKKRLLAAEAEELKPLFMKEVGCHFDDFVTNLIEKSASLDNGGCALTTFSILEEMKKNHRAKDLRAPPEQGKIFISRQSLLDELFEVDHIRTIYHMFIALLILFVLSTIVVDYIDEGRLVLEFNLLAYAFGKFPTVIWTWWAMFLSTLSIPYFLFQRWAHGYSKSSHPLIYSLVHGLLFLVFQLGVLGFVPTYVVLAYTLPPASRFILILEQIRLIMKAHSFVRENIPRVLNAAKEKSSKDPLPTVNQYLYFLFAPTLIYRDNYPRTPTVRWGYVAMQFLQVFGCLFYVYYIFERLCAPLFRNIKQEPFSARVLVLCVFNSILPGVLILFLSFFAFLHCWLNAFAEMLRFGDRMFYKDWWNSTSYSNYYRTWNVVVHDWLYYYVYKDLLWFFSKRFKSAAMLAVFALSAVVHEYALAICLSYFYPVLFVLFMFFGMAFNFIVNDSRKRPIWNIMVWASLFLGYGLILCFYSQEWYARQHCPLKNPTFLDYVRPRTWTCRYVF

| Molecule | 3H-cholesterol exported into the media after 24 hours (FIG. 19) (THP-1 cells) | 3H-cholesterol exported into the media after 24 hours (FIG. 19) (NR8383 cells) | 3H-cholesterol exported into the media after 24 hours (FIG. 19) (J774 macrophages; mouse J774 cells) | 3H-cholesterol export into the plasma, dose response (FIGS. 17 and 18) [1] | radiolabeled cholesterol exported in the plasma (FIG. 15) [1] | further results |
| --- | --- | --- | --- | --- | --- | --- |
| ADQAANEWGRSGKDPNHFR [SEQ ID NO:12, consensus 19-mer, residues 78-96 of human SAA1.1] | equally effective in inducing cholesterol export | equally effective in inducing cholesterol export | equally effective in inducing cholesterol export | increased efficacy as the dose increased | no effect on cholesterol efflux | cholesterol efflux, time course at various concentrations (FIG. 6) (THP-1 cells; liposomal formulations, 0.05 to 5.0 μM): continued to increase over a time period from 0 to 24 hours; cholesterol export enhancing activity, time course (FIG. 9) (J774 macrophages; liposomal formulations, mouse J774 cells): greatest cholesterol export enhancing activity; increase of cholesterol efflux with dose compared to mouse peptide SEQ ID NO:4 (FIGS. 5A and 5B) (J774 macrophages; liposomes, 0.05 to 5.0 μM, macrophages): at least as effective if not more effective |
| RSFFSFLGEAFDGARDMWRA [SEQ ID NO:30, 20-mer, residues 1-20 of human SAA1.1 or SAA2.1] | equally effective in inducing cholesterol export | equally effective in inducing cholesterol export | equally effective in inducing cholesterol export | increased efficacy as the dose increased | no effect on cholesterol efflux | – |
| DTIADQEANRHGRSGKDPNYYRPPGLPDKY [synthetic peptide corresponding to amino acid residues 74-103 of murine SAA2.1] | – | – | – | – | – | rate of hydrolysis of [14C]-labeled cholesteryl oleate in J774 cells, re-esterification blocked with Sandoz 58-035 (fold increase) [2]: 3 |
| GFFSFVHEAFQGAGDMWRAY [synthetic peptide corresponding to amino acid residues 1-20 of murine SAA2.1] | – | – | – | – | – | acyl CoA:cholesterol acyl transferase activity (incorporation of [14C]oleate into cholesteryl ester), cholesterol-laden murine cells, liposomes with 0.5 µM peptide, 6 hour incubation (fold decrease) [3]: 2 |
| B1 | – | – | – | – | – | cholesterol esterase activities in vitro [4]: effect was shown to reside; macrophage ACAT activity [5]: no inhibitory effect on ACAT activity |
